From patent US10406136B2 (priority 2013, dated 2019)

Legend:
[1] = target: T1, neuraminidase (EC. 3.2.1.8, C. perfringens, SIGMA, N2876) (Clostridium perfringens, UniProt A0A0H2YQR1); assay type: biochemical; conditions: Lineweaver-Burk and Dixon plots
[2] = target: T1, neuraminidase (EC. 3.2.1.8, C. perfringens, SIGMA, N2876); assay type: biochemical

T1 sequence (A0A0H2YQR1 1-694): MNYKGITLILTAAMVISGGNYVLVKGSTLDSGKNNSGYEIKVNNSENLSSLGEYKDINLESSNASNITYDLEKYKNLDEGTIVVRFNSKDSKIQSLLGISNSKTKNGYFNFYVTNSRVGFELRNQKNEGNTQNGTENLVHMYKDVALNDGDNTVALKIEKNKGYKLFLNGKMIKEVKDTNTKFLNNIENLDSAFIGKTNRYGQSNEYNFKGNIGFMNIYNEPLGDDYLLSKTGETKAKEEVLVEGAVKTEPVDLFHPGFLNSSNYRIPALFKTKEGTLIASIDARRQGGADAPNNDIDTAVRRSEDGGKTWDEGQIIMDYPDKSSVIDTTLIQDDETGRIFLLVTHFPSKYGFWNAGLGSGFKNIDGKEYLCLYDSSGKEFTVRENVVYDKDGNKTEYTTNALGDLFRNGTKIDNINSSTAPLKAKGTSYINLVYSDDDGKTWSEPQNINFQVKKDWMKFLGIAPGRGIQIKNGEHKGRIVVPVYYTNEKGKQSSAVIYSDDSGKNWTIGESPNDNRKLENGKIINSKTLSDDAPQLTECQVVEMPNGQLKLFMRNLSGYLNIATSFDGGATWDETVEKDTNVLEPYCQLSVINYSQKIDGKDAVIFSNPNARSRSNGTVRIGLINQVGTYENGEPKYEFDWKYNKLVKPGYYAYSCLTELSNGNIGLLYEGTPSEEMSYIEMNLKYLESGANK

Compound | Inhibition (type) [1] | IC50 [2] [µM]
COc1cc(C2Oc3cc(O)c(C/C=C(\C)CCC=C(C)C)c(O)c3C(=O)[C@@H]2O)ccc1O (stereo partly shown) [Compound 1, 3′-O-methyldiplacol] | Competitive | –
COc1ccc(C2Oc3cc(O)c(C/C=C(\C)CCC=C(C)C)c(O)c3C(=O)[C@@H]2O)cc1O (stereo partly shown) [Compound 2, 4′-O-methyldiplacol] | Competitive | –
COc1cc(C2CC(=O)c3c(cc(O)c(C/C=C(\C)CCC=C(C)C)c3O)O2)ccc1O (stereo not shown) [Compound 4, 3′-O-methyldiplacone] | Competitive | –
COc1ccc(C2CC(=O)c3c(cc(O)c(C/C=C(\C)CCC=C(C)C)c3O)O2)cc1O (stereo not shown) [Compound 5, 4′-O-methyldiplacone] | Competitive | 12.9 ± 0.4
COc1c(O)cc(C2CC(=O)c3c(cc(O)c(C/C=C(\C)CCC=C(C)C)c3O)O2)cc1O (stereo not shown) [Compound 6, 6-geranyl-3′,5,5′,7-tetrahydroxy-4′-methoxyflavanone] | Competitive | –
CC(C)=CCC/C(C)=C/Cc1c(O)cc2c(c1O)C(=O)CC(c1ccc(O)cc1)O2 (stereo not shown) [Compound 7, mimulone] | Competitive | –
CC(C)=CCC/C(C)=C/Cc1c(O)cc2c(c1O)C(=O)CC(c1ccc(O)c(O)c1)O2 (stereo not shown) [Compound 8, diplacone] | Competitive | 0.11 ± 0.003
COc1cc(C2CC(=O)c3c(cc(O)c(C/C=C(\C)CCC=C(C)C)c3O)O2)cc(OC)c1O (stereo not shown) [Compound 9, 6-geranyl-4′,5,7-trihydroxy-3′,5′-dimethoxyflavanone] | Competitive | –
